From US10138238B2, “Pesticidally active polycyclic derivatives with sulfur containing substituents” (Syngenta Participations AG, priority 2015, dated 2018)

Legend:
Assay type in all cases: in vivo
[1] = tested on: Spodoptera littoralis (Egyptian Cotton Leaf Worm); test: Example B13: Breakpoint (BP80) against Spodoptera littoralis; conditions: lowest concentration which gives 80% larval mortality; larval feeding/contact
Method: (§1) Cotton leaf discs were placed onto agar in 24-well microtiter plates and sprayed with aqueous test solutions prepared from 10'000 ppm DMSO stock solutions. After drying the leaf discs were infested with five L1 larvae. The samples were assessed for mortality, anti-feeding effect, and growth inhibition in comparison to untreated samples 3 days after infestation. Control of Spodoptera littoralis by a test sample is given when at least one of the categories mortality, anti-feedant effect, and growth inhibition is higher than the untreated sample.
(§2) Insecticidal action against Diabrotica balteata (Corn root worm), Plutella xylostella (Diamond black moth), and Spodoptera littoralis (Egyptian cotton leaf worm). The tests were carried out as described in biological examples B2, B6 and B7, respectively, with the larval feeding/contact activity being reported as Breakpoint (BP80) values in parts per million (i.e. the lowest concentration which gives 80% larval mortality).

[2] = tested on: Plutella xylostella (Diamond Back Moth); test: Example B6: Plutella xylostella, artificial diet, L2 larvae; conditions: 120 h, application rate of 200 ppm, 5 days after infestation, read-out: effect in at least one of the two categories (mortality or growth inhibition)
Method: (§3) 24-well microtiter plates with artificial diet were treated with aqueous test solutions prepared from 10'000 ppm DMSO stock solutions by pipetting. After drying, the plates were infested with L2 larvae (10 to 15 per well). The samples were assessed for mortality and growth inhibition in comparison to untreated samples 5 days after infestation. The following compounds gave an effect of at least 80% in at least one of the two categories (mortality or growth inhibition) at an application rate of 200 ppm: P1, P2, P3, P4, P6, P8, P9, P10, P11, P12, P13, P14 and P15.

[3] = tested on: Thrips tabaci (Onion Thrips); test: Example B10: Thrips tabaci feeding/contact activity; conditions: 144 h, application rate of 200 ppm, 6 days after infestation
Method: (§4) Sunflower leaf discs were placed on agar in 24-well microtiter plates and sprayed with aqueous test solutions prepared from 10'000 ppm DMSO stock solutions. After drying the leaf discs were infested with a thrips population of mixed ages. The samples were assessed for mortality 6 days after infestation.

[4] = tested on: Diabrotica balteata (Corn Root Worm); test: Example B2: Diabrotica balteata, maize sprouts, L2 larvae; conditions: 96 h, application rate of 200 ppm, 4 days after infestation, read-out: effect in at least one of the two categories (mortality or growth inhibition)
Method: (§5) Maize sprouts placed onto an agar layer in 24-well microtiter plates were treated with aqueous test solutions prepared from 10'000 ppm DMSO stock solutions by spraying. After drying, the plates were infested with L2 larvae (6 to 10 per well). The samples were assessed for mortality and growth inhibition in comparison to untreated samples 4 days after infestation. The following compounds gave an effect of at least 80% in at least one of the two categories (mortality or growth inhibition) at an application rate of 200 ppm: P1, P2, P3, P4, P5, P6, P7, P8, P9, P10, P11, P12, P13, P14, and P15.

[5] = tested on: Euschistus heros (Neotropical Brown Stink Bug); test: Example B3: Euschistus heros, soybean leaves, N2 nymphs; conditions: 120 h, application rate of 200 ppm, 5 days after infestation, read-out: effect in at least one of the two categories (mortality or growth inhibition)
Method: Soybean leaves on agar in 24-well microtiter plates were sprayed with aqueous test solutions prepared from 10'000 ppm DMSO stock solutions. After drying the leaves were infested with N2 nymphs. The samples were assessed for mortality and growth inhibition in comparison to untreated samples 5 days after infestation. The following compounds gave an effect of at least 80% in at least one of the two categories (mortality or growth inhibition) at an application rate of 200 ppm: • P1, P3, P8, P9, P10, P13, P14, and P15

[6] = tested on: Plutella xylostella (Diamond black moth); test: Example B13: Breakpoint (BP80) against Plutella xylostella; conditions: lowest concentration which gives 80% larval mortality; larval feeding/contact
Method: as §3, §2

[7] = tested on: Spodoptera littoralis (Egyptian Cotton Leaf Worm); test: Example B7: Spodoptera littoralis, cotton leaf discs, L1 larvae; conditions: foliar, 72 h, application rate of 200 ppm, 3 days after infestation
Method: as §1

[8] = tested on: Diabrotica balteata (Corn Root Worm); test: Example B13: Breakpoint (BP80) against Diabrotica balteata; conditions: lowest concentration which gives 80% larval mortality; larval feeding/contact
Method: as §5, §2

[9] = tested on: Tetranychus urticae (Two-Spotted Spider Mite); test: Example B9: Tetranychus urticae feeding/contact activity; conditions: 192 h
Method: as §4, with “Bean” for “Sunflower”, “discs” for “discs were placed”, “were” for “and”, “mite” for “thrips”, “on mixed population (mobile stages) 8” for “6”

[10] = tested on: Myzus persicae (Green Peach Aphid); test: Example B4: Myzus persicae feeding/contact activity; conditions: 144 h, application rate of 200 ppm, 6 days after infestation
Method: Sunflower leaf discs were placed onto agar in a 24-well microtiter plate and sprayed with aqueous test solutions prepared from 10'000 ppm DMSO stock solutions. After drying, the leaf discs were infested with an aphid population of mixed ages. The samples were assessed for mortality 6 days after infestation.

[11] = tested on: Spodoptera littoralis (Egyptian Cotton Leaf Worm); test: Example B8: Spodoptera littoralis systemic activity; conditions: 144 h, test rate of 12.5 ppm, lettuce, 6 days after infestation, read-out: effect in at least one of the three categories (mortality, anti-feeding, or growth inhibition)
Text: Test compounds were applied by pipette from 10'000 ppm DMSO stock solutions into 24-well plates and mixed with agar. Lettuce seeds were placed onto the agar and the multi well plate was closed by another plate which contained also agar. After 7 days the compound was absorbed by the roots and the lettuce grew into the lid plate. The lettuce leaves were then cut off into the lid plate. Spodoptera eggs were pipetted through a plastic stencil onto a humid gel blotting paper and the lid plate was closed with it. The samples were assessed for mortality, anti-feedant effect and growth inhibition in comparison to untreated samples 6 days after infestation. The following compounds gave an effect of at least 80% in at least one of the three categories (mortality, anti-feeding, or growth inhibition) at a test rate of 12.5 ppm: • P10, P13, P14 and P15.

[12] = tested on: Myzus persicae (Green Peach Aphid); test: Example B5: Myzus persicae systemic activity; conditions: 144 h, test rate of 24 ppm, pea seedling roots, 6 days
Method: Roots of pea seedlings infested with an aphid population of mixed ages were placed directly into aqueous test solutions prepared from 10'000 DMSO stock solutions. The samples were assessed for mortality 6 days after placing seedlings into test solutions.

Compound	BP80 Values Spodoptera littoralis [1]	percent effect (mortality or growth inhibition) at 200 ppm [2]	mortality at 200 ppm [3]	percent effect (mortality or growth inhibition) at 200 ppm [4]	percent effect (mortality or growth inhibition) at 200 ppm [5]	BP80 Values Plutella xylostella [6]	percent control (mortality, anti-feedant effect or growth inhibition) at 200 ppm [7]	BP80 Values Diabrotica balteata [8]	mortality at 200 ppm [9]	mortality at 200 ppm [10]	percent effect (mortality, anti-feeding or growth inhibition) at 12.5 ppm [11]	mortality at 24 ppm [12]
CCS(=O)(=O)c1ccc(-n2ccc(C(F)(F)F)n2)nc1-c1nc2cc(C(F)(F)F)ncc2n1C [Compound P3, 2-[3-ethylsulfonyl-6-[3-(trifluoromethyl)pyrazol-1-yl]-2-pyridyl]-3-methyl-6-(trifluoromethyl)imidazo[4,5-c]pyridine]	0.8 ppm	≥ 80%	≥ 80%	≥ 80%	≥ 80%	12 ppm	≥ 80%	0.8 ppm	–	–	–	–
CCS(=O)(=O)c1ccc(-c2ncccn2)nc1-c1nc2cc(SC(F)(F)F)ncc2n1C [Compound P10, 2-(3-ethylsulfonyl-6-pyrimidin-2-yl-2-pyridyl)-3-methyl-6-(trifluoromethylsulfanyl)imidazo[4,5-c]pyridine]	–	≥ 80%	≥ 80%	≥ 80%	≥ 80%	–	≥ 80%	–	≥ 80%	≥ 80%	≥ 80%	≥ 80%
